This note sets out measurements from US20220305017A1, “COMPOSITIONS AND METHODS FOR THE TREATMENT OF ESTROGEN-DEPENDENT DISORDERS” (ObsEva S.A., priority 2019, published 2022).

The test system of this series is human female patients diagnosed as having adenomyosis. As to the kind of experiment: human clinical trial in adenomyosis (single-patient longitudinal case study and multi-patient analysis, n = 6). In kind it is in vivo. To be noted: single patient. The text has this: This examples describes the results of a human clinical trial conducted to evaluate the ability of a GnRH antagonist, 3-[2-fluoro-5-(2,3-difluoro-6-methoxybenzyloxy)4-methoxyphenyl]-2,4-dioxo-1,2,3,4-tetrahydrothieno [3,4d]pyrimidine-5-carboxylic acid (represented by formula (VI)), or a pharmaceutically acceptable salt thereof, to treat adenomyosis, an estrogen-dependent disease, in human patients diagnosed as having this condition.
One aim of this study was to investigate the ability of the GnRH antagonist to maintain its therapeutic effects despite being administered to patients in a progressively lower dosage throughout the trial. To this end, the patients treated in this study was first administered the GnRH antagonist of formula (VI) in an amount of 200 mg/day during an initial 12-week period. The GnRH antagonist was then administered to the patients in a reduced amount of 100 mg/day during a subsequent 12-week period. The patients' responsiveness to the GnRH antagonist was monitored throughout the study.
In addition to assessing the effectiveness of the GnRH antagonist when administered at lower doses, another aim of this study was to evaluate the ability of the GnRH antagonist to sustain its therapeutic effects even after treatment was ceased altogether. Accordingly, after being periodically administered the GnRH antagonist of formula (VI) over the course of 24 weeks, first in an amount of 200 mg/day and then in an amount of 100 mg/day, treatment with the GnRH antagonist was halted entirely. The patients were then monitored during a post-treatment follow-up period to analyze the extent to which the therapeutic effects of the compound were sustained.
To test the effects of compound (VI), a total of n=6 human female patients diagnosed as having adenomyosis were administered compound (VI) in accordance with the dosing schedule described above. One of these patients in particular was closely monitored beginning well before their treatment with compound (VI) was initiated. The specific results of this patient's therapy are described in the section entitled “Single-Patient Longitudinal Case Study,” below. The cumulative set of results for all 6 patients is reported in the section entitled “Multi-Patient Analysis,” below.
As part of the clinical trial, a case study was conducted in which a single patient of reproductive age having clinically diagnosed adenomyosis was monitored during the course of treatment with compound (VI). The patient was nulliparous. Two years before the study began, the patient presented with heavy menstrual bleeding, pelvic pain, and dysmenorrhea. […] Their gynecologist prescribed ulipristal acetate (UPA), a selective progesterone receptor modulator (SPRM), to be administered in an amount of 5 mg/day over the course of a treatment period lasting three months.
The patient was then recommended for treatment with the GnRH antagonist represented by formula (VI) herein. Accordingly, the patient was orally administered compound (VI) in an amount of 200 mg/day for three months. Following this initial three-month period, the patient was orally administered compound (VI) in a reduced amount of 100 mg/day for a subsequent three-period. During both treatment periods, compound (VI) was administered to the patient in the form of a choline salt.
The patient was recommended for once-daily treatment with the GnRH antagonist of formula (VI). Accordingly, the patient was administered the GnRH antagonist of formula (VI) in an amount of 200 mg/day during a first treatment period, which lasted three months. At the conclusion of the first treatment period, the patient began a second treatment period in which they were administered compound (VI) in a reduced amount of 100 mg/day for three months. During both treatment periods, compound (VI) was administered to the patient in the form of a choline salt. […]

For the molecule `CC(=O)O[C@]1(C(C)=O)CC[C@H]2[C@@H]3CCC4=CC(=O)CCC4=C3[C@@H](c3ccc(N(C)C)cc3)C[C@@]21C` [UPA, ulipristal acetate, reference compound], the bleeding during treatment entry (5 mg/day for three months) is “breakthrough bleeding and spotting”. In addition, for the setting “5 mg/day for three months, before compound (VI)”, the “symptoms of pelvic pain and dysmenorrhea” value is reported as “worsened”. Also, under “end of 5 mg/day three-month course, FIG. 4B”, the “adenomyotic lesions by MRI” value is listed as “significantly increased quantity of adenomyotic lesions”.
